Laboratory results published in ChEMBL document CHEMBL1132502, “Synthesis of a fluorescent microgonotropen (FMGT-1) and its interactions with the dodecamer d(CCGGAATTCCGG)” (Bioorg Med Chem Lett, 1999).

Test system: Nucleic Acid
Assay: Association constant (Ka) with DNA dodecamer d(CCGGAATTCCGG) was determined
Assay type: nucleic-acid assay

With `CN1CCN(c2ccc3[nH]c(-c4ccc5[nH]c(-c6ccc(O)cc6)nc5c4)nc3c2)CC1` the Ka was 1.3 M⁻¹.
